Measurements: US4758580A, “Inhibiting growth of tumors with certain substituted phenoxy dimethyl alkanoic acids, esters or salts” (Yamanouchi Pharmaceutical Co., Ltd., priority 1985, dated 1988)
≈ marks a conversion by molar mass, not a printed value.

Experiments:
Ehrlich (carcinoma) = assay: In vitro cytotoxicity against mouse tumor cells, Ehrlich; format: cell-based; conditions: 72 h, Ehrlich (carcinoma), 3 days, 37° C., trypan blue, read-out: IC50
Protocol: (§1) A suspension of cells in a culture medium was transferred into wells in a microplate in an amount of 1×10^5 cells/wall. Test sample diluted with a culture medium was added to the suspension in each well, and the mixture was incubated on the medium at 37° C. for 3 days in atmosphere of air containing 5% carbon dioxide. Thereafter, the incubated cells were recovered from the microplate and the number of live cells was counted by the dye exclusion test using a 0.5% solution of trypan blue and by using a hemocytomer.

Bowes (melanoma) = assay: In vitro cytotoxicity against human tumor cells, Bowes; format: cell-based; conditions: 72 h, Bowes, 3 days, 37° C., crystalviolet, read-out: IC50
Protocol: (§2) A suspension of cells in a culture medium was transferred into wells in a microplate in an amount of 5×10^4 cells/well. Test sample diluted with a culture medium was added to the suspension in each well, and the mixture was incubated at 37° C. for 3 days in an atmosphere of air containing 5% carbon dioxide. After skimming, sticking cells were dyed which crystalviolet for 10 minutes. After washing with water, 1% sodium lauryl sulfate solution was added to each well, and the absrobancy (optical density) at […] was measured. "% inhibition" was calculated from the following equation. [formula]

Ehrlich ascites tumor = assay: Anti-tumor effect against Ehrlich ascites tumor; format: in vivo, ddY/SLC mice
Protocol: (§3) Ehlrich tumor cells, 1×10^6, on Day 7 after intraperitoneal transplantation to ddY/SLC mice were intraperitoneally transplanted to ddY/SLC mice (5 week age, male) of 10 mice each being grouped in one. The active component was intraperitoneally administered in a definite dose 24 hours after the transplantation according to the schedule shown in Table 4. An effect of tumor growth inhibition was evaluated by a percentage of the median survival day of the administered group versus that of the control group, according to the following equation.
(§4) T: median survival day of the administered group
(§5) C: median survival day of the control group

[1] = test system: liver cancer (MH-134) cells; assay: Inhibition of spontaneous metastasis (to the lymph node) of liver cancer (MH-134) cells in mice; format: in vivo, C3 H/He/SLC mice; conditions: 20th day
Protocol: (a) Inhibition of spontaneous metastasis (to the lymph node) of liver cancer (MH-134) cells in mice
MH-134 tumor cells, 1×10^6, on Day 7 after intraperitoneal transplantation to C3 H/He/SLC mice were transplanted to the right leg. On the 11th day after the transplantation, the right leg portion wherein the cancer cells were transplanted were cut off. The test compounds were administered orally in a definite dose 24 hours after the transplantation. In order to confirm metastasis-inhibiting effect, on 20th day of the transplantation the mice were anatomised to observe the metastasis to the lymph node in the inguinal portion. [formula] Further, the weight of the lymph node metastasis tumor in the inguinal portion of anatomised mice was measured. [formula]

L-1210 = assay: In vitro cytotoxicity against mouse tumor cells, L-1210; format: cell-based; conditions: L1210, 72 h, L-1210, 3 days, 37° C., trypan blue, read-out: IC50
Protocol: as §1

melanoma BL-6 = assay: Inhibition of experimental metastasis (to the lung) of melanoma BL-6 in mice; format: in vivo, male BDF1 /SLC mice; conditions: 22th day
Protocol: (b) Inhibition of experimental metastasis (to the lung) of melanoma BL-6 in mice
BL-6 cancer cells, 5×10^4, were inoculated into the tail veins of male BDF1 /SLC mice (6 week age) of 6 mice each being grouped in one (13 mice for the control group). The test compounds were administered orally in a definite dose 24 hours after the inoculation. In order to see metastasis-inhibitory effect, on 22th day after the inoculation, the mice were anatomised to observe the metastasis to the lungs. The degree of metastasis was evaluated by the number of pulmonary nodules. [formula] T: Median number of pulmonary nodules of the administered group C: Median number of pulmonary nodules of the control group

MM-46 ascites tumor = assay: Anti-tumor test against mice mammary cancer MM-46 ascites tumor; format: in vivo, C3 H/He/CRJ mice
Protocol: as §3, with “MM-46” for “Ehlrich”, “C3 H/He/CRJ” for “ddY/SLC mice were intraperitoneally transplanted to ddY/SLC”, “5.” for “4.”, “time” for “day”
as §4, §5

[2] = test system: KB (nasal cavity & pharynx cancer); assay: In vitro cytotoxicity against human tumor cells, KB; format: cell-based; conditions: 72 h, KB, 3 days, 37° C., crystalviolet, read-out: IC50
Protocol: as §2

Hela (uterine cancer) = assay: In vitro cytotoxicity against human tumor cells, Hela; format: cell-based; conditions: 72 h, 3 days, 37° C., crystalviolet
Protocol: as §2

[3] = 100 mg/kg i.p., 1, 3, 6, 8 & 10 Days
[4] = 100 mg/kg oral, 1, 3, 5, 7, 9, 11, 13 and 15 days
[5] = 200 mg/kg oral, 1, 3, 5, 7, 9, 11, 13 and 15 days
[6] = 400 mg/kg oral, 1, 3, 5, 7, 9, 11, 13 and 15 days
[7] = 200 mg/kg oral, 1, 2, 3, 5, 6, 7, 8, 9 and 10 days
[8] = 400 mg/kg oral, 1, 2, 3, 5, 6, 7, 8, 9 and 10 days
[9] = 6.25 mg/kg i.p., 1, 2, 3, 4 and 6 Days
[10] = 12.5 mg/kg i.p., 1, 2, 3, 4 and 6 Days
[11] = 25 mg/kg i.p., 1, 2, 3, 4 and 6 Days
[12] = 50 mg/kg i.p., 1, 2, 3, 4 and 6 Days
[13] = 100 mg/kg i.p., 1, 2, 3, 4 and 6 Days
[14] = 200 mg/kg i.p., 1, 2, 3, 4 and 6 Days

## CCOC(=O)C(C)(C)CCCCOc1ccc(OCCCCCn2ccnc2)cc1 [Compound B]
Ehrlich (carcinoma)
  IC50: 0.5 µg/mL (≈ 1.2 µM)
Bowes (melanoma)
  IC50: 1 µg/mL (≈ 2.4 µM)
Ehrlich ascites tumor; 15 mg/kg i.p., 1-9 Days
  Median Survival Day: 16.0 days
  No. of 40-day Survivors: 0/8
  T/C (median survival): 106%
Ehrlich ascites tumor; 30 mg/kg i.p., 1-9 Days
  Median Survival Day: 22.5 days
  No. of 40-day Survivors: 1/8
  T/C (median survival): 150.0%
Ehrlich ascites tumor; 60 mg/kg i.p., 1-9 Days
  Median Survival Day: 21.5 days
  No. of 40-day Survivors: 2/8
  T/C (median survival): 143.3%
Ehrlich ascites tumor; [3]
  Median Survival Day: 26.5 days
  No. of 40-day Survivors: 2/8
  T/C (median survival): 176.7%
[1]; [4]
  Growth inhibition of the metastasis tumor: 33.8%
  Metastasis-inhibition rate: 8.5%
[1]; [5]
  Growth inhibition of the metastasis tumor: 79.4%
  Metastasis-inhibition rate: 41.2%
[1]; [6]
  Growth inhibition of the metastasis tumor: 80.4%
  Metastasis-inhibition rate: 73.9%
L-1210
  IC50: 1.9 µg/mL (≈ 4.56 µM)
Melanoma BL-6; [7]
  Pulmonary metastasis-inhibition rate: 50.0%
  The number of pulmonary nodules, median: 10.5
  The number of pulmonary nodules, range: 1-20
Melanoma BL-6; [8]
  Pulmonary metastasis-inhibition rate: 69.0%
  The number of pulmonary nodules, median: 6.5
  The number of pulmonary nodules, range: 1-14
MM-46 ascites tumor; [9]
  Median Survival Day: 7.0 days
  Survivors (90 days): 0/10
  T/C (median survival): 93.3%
MM-46 ascites tumor; [10]
  Median Survival Day: 7.0 days
  Survivors (90 days): 0/10
  T/C (median survival): 93.3%
MM-46 ascites tumor; [11]
  Median Survival Day: 8.5 days
  Survivors (90 days): 0/10
  T/C (median survival): 113.3%
MM-46 ascites tumor; [12]
  Median Survival Day: 34.0 days
  Survivors (90 days): 0/10
  T/C (median survival): 453.3%
MM-46 ascites tumor; [13]
  Median Survival Day: 49.0 days
  Survivors (90 days): 1/10
  T/C (median survival): 653.3%
MM-46 ascites tumor; [14]
  Median Survival Day: 18.5 days
  Survivors (90 days): 0/10
  T/C (median survival): 246.7%
[2]
  IC50: 1.15 µg/mL (≈ 2.76 µM)
Hela (uterine cancer)
  IC50: 2.05 µg/mL (≈ 4.92 µM)
